Assays:
Leaf [1] = assay: Drug level in Phaseolus vulgaris (kidney bean) leaf assessed as deposition in leaf at 0.8 mg/l; format: ADME
[2] = Toxicity against Aphidius colemani in cucumber leaf assessed as mortality at 20 mg/l treated as spraying after 48 hr relative to control; format: organism-based; conditions: in vivo
[3] = Toxicity against Aphidius colemani in kidney bean leaf assessed as mortality at 0.8 mg/l treated as spraying after 48 hr relative to control; format: organism-based; conditions: in vivo, other: spraying
Leaf [4] = assay: Drug level in Cucumis sativus (cucumber) leaf assessed as deposition in leaf at 100 mg/l; format: ADME
[5] = Residual toxicity against Aphidius colemani in strawberry leaf assessed as mortality at 50 mg/l leaves collected after 10 days of application measured after 24 hr relative to control; format: organism-based; conditions: in vivo
[6] = Toxicity against Aphidius colemani in kidney bean leaf assessed as mortality at 83.3 mg/l treated as spraying after 24 hr relative to control; format: organism-based; conditions: in vivo, other: spraying
[7] = Toxicity against Aphidius colemani in strawberry leaf assessed as mortality at 5 mg/l treated as spraying after 24 hr relative to control; format: organism-based; conditions: in vivo, other: spraying
[8] = Residual toxicity against Aphidius colemani in strawberry leaf assessed as mortality at 50 mg/l leaves collected after 10 days of application measured after 48 hr relative to control; format: organism-based; conditions: in vivo
[9] = Toxicity against Aphidius colemani in kidney bean leaf assessed as mortality at 8.3 mg/l treated as spraying after 24 hr relative to control; format: organism-based; conditions: in vivo
[10] = Contact toxicity against Aphidius colemani assessed as mortality at 100 mg/l after 24 hr; format: organism-based; conditions: in vivo, other: contact
[11] = Toxicity against Aphidius colemani in kidney bean leaf assessed as mortality at 1 mg/l treated as spraying after 48 hr relative to control; format: organism-based; conditions: in vivo
Leaf [12] = assay: Drug level in Fragaria x ananassa (strawberry) leaf assessed as deposition in leaf at 1 mg/l; format: ADME
Leaf [13] = assay: Drug level in Cucumis sativus (cucumber) leaf assessed as deposition in leaf at 20 mg/l; format: ADME
[14] = Residual toxicity against Aphidius colemani in strawberry leaf assessed as mortality at 50 mg/l leaves collected after 30 days of application measured after 48 hr relative to control; format: organism-based; conditions: in vivo
[15] = Residual toxicity against Aphidius colemani in strawberry leaf assessed as mortality at 50 mg/l leaves collected after 30 days of application measured after 24 hr relative to control; format: organism-based; conditions: in vivo
[16] = Drug level in Fragaria x ananassa (strawberry) leaf at 50 mg/l leaves after 10 days; format: ADME; conditions: read-out: Drug uptake
[17] = Toxicity against Aphidius colemani in cucumber leaf assessed as mortality at 20 mg/l treated as spraying after 24 hr relative to control; format: organism-based; conditions: in vivo, other: spraying
[18] = Residual toxicity against Aphidius colemani in strawberry leaf assessed as mortality at 50 mg/l leaves collected after 40 days of application measured after 24 hr relative to control; format: organism-based; conditions: in vivo
[19] = Toxicity against Aphidius colemani in cucumber leaf assessed as mortality at 100 mg/l treated as spraying after 48 hr relative to control; format: organism-based; conditions: in vivo
Leaf [20] = assay: Drug level in Phaseolus vulgaris (kidney bean) leaf assessed as deposition in leaf at 100 mg/l; format: ADME
Leaf [21] = assay: Drug level in Phaseolus vulgaris (kidney bean) leaf assessed as deposition in leaf at 5 mg/l; format: ADME
[22] = Toxicity against Aphidius colemani in kidney bean leaf assessed as mortality at 8.3 mg/l treated as spraying after 48 hr relative to control; format: organism-based; conditions: in vivo
[23] = Toxicity against Aphidius colemani in kidney bean leaf assessed as mortality at 0.8 mg/l treated as spraying after 24 hr relative to control; format: organism-based; conditions: in vivo
[24] = Drug level in Fragaria x ananassa (strawberry) leaf at 50 mg/l leaves after 30 days; format: ADME; conditions: read-out: Drug uptake
[25] = Residual toxicity against Aphidius colemani in strawberry leaf assessed as mortality at 50 mg/l leaves collected after 20 days of application measured after 24 hr relative to control; format: organism-based; conditions: in vivo
[26] = Contact toxicity against Aphidius colemani assessed as mortality at 100 mg/l after 24 hr relative to control; format: organism-based; conditions: in vivo, other: contact
[27] = Toxicity against Aphidius colemani in kidney bean leaf assessed as mortality at 5 mg/l treated as spraying after 24 hr relative to control; format: organism-based; conditions: in vivo
[28] = Toxicity against Aphidius colemani in kidney bean leaf assessed as mortality at 83.3 mg/l treated as spraying after 48 hr relative to control; format: organism-based; conditions: in vivo, other: spraying
Leaf [29] = assay: Drug level in Cucumis sativus (cucumber) leaf assessed as deposition in leaf at 10 mg/l; format: ADME
[30] = Residual toxicity against Aphidius colemani in strawberry leaf assessed as mortality at 50 mg/l leaves collected after 40 days of application measured after 48 hr relative to control; format: organism-based; conditions: in vivo
Leaf [31] = assay: Drug level in Fragaria x ananassa (strawberry) leaf assessed as deposition in leaf at 5 mg/l; format: ADME
[32] = Toxicity against Aphidius colemani in strawberry leaf assessed as mortality at 100 mg/l treated as spraying after 48 hr relative to control; format: organism-based; conditions: in vivo
Leaf [33] = assay: Drug level in Fragaria x ananassa (strawberry) leaf assessed as deposition in leaf at 100 mg/l; format: ADME
[34] = Toxicity against Aphidius colemani in cucumber leaf assessed as mortality at 5 mg/l treated as spraying after 24 hr relative to control; format: organism-based; conditions: in vivo, other: spraying
Aphidius colemani [35] = assay: Drug uptake in Aphidius colemani at 100 mg/l treated as spraying; format: ADME, organism-based; conditions: in vivo, topical_or_ocular
[36] = Toxicity against Aphidius colemani in kidney bean leaf assessed as mortality at 100 mg/l treated as spraying after 48 hr relative to control; format: organism-based; conditions: in vivo, other: spraying
[37] = Residual toxicity against Aphidius colemani in strawberry leaf assessed as mortality at 50 mg/l leaves collected after 5 days of application measured after 48 hr relative to control; format: organism-based; conditions: in vivo
[38] = Residual toxicity against Aphidius colemani in strawberry leaf assessed as mortality at 50 mg/l leaves collected after 20 days of application measured after 48 hr relative to control; format: organism-based; conditions: in vivo
[39] = Toxicity against Aphidius colemani assessed as mortality at 100 mg/l, po after 24 hr; format: organism-based; conditions: in vivo
[40] = Residual toxicity against Aphidius colemani in strawberry leaf assessed as mortality at 50 mg/l leaves collected after 5 days of application measured after 24 hr relative to control; format: organism-based; conditions: in vivo
[41] = Toxicity against Aphidius colemani in strawberry leaf assessed as mortality at 100 mg/l treated as spraying after 24 hr relative to control; format: organism-based; conditions: in vivo
[42] = Drug level in Fragaria x ananassa (strawberry) leaf at 50 mg/l leaves after 40 days; format: ADME; conditions: read-out: Drug uptake
[43] = Toxicity against Aphidius colemani in cucumber leaf assessed as mortality at 100 mg/l treated as spraying after 24 hr relative to control; format: organism-based; conditions: in vivo, other: spraying
Leaf [44] = assay: Drug level in Phaseolus vulgaris (kidney bean) leaf assessed as deposition in leaf at 1 mg/l; format: ADME
[45] = Toxicity against Aphidius colemani in kidney bean leaf assessed as mortality at 1 mg/l treated as spraying after 24 hr relative to control; format: organism-based; conditions: in vivo
[46] = Toxicity against Aphidius colemani in strawberry leaf assessed as mortality at 1 mg/l treated as spraying after 24 hr relative to control; format: organism-based; conditions: in vivo, other: spraying
[47] = Toxicity against Aphidius colemani in cucumber leaf assessed as mortality at 10 mg/l treated as spraying after 24 hr relative to control; format: organism-based; conditions: in vivo, other: spraying
[48] = Toxicity against Aphidius colemani in cucumber leaf assessed as mortality at 10 mg/l treated as spraying after 48 hr relative to control; format: organism-based; conditions: in vivo, other: spraying
[49] = Toxicity against Aphidius colemani in strawberry leaf assessed as mortality at 1 mg/l treated as spraying after 48 hr relative to control; format: organism-based; conditions: in vivo, other: spraying
[50] = Toxicity against Aphidius colemani in cucumber leaf assessed as mortality at 5 mg/l treated as spraying after 48 hr relative to control; format: organism-based; conditions: in vivo
Leaf [51] = assay: Drug level in Phaseolus vulgaris (kidney bean) leaf assessed as deposition in leaf at 8.3 mg/l; format: ADME
[52] = Toxicity against Aphidius colemani assessed as mortality at 100 mg/l, po after 24 hr relative to control; format: organism-based; conditions: in vivo
[53] = Toxicity against Aphidius colemani in kidney bean leaf assessed as mortality at 5 mg/l treated as spraying after 48 hr relative to control; format: organism-based; conditions: in vivo
[54] = Drug level in Fragaria x ananassa (strawberry) leaf at 50 mg/l leaves after 5 days; format: ADME; conditions: read-out: Drug uptake
Leaf [55] = assay: Drug level in Cucumis sativus (cucumber) leaf assessed as deposition in leaf at 5 mg/l; format: ADME
[56] = Drug level in Fragaria x ananassa (strawberry) leaf at 50 mg/l leaves after 20 days; format: ADME; conditions: read-out: Drug uptake
Leaf [57] = assay: Drug level in Phaseolus vulgaris (kidney bean) leaf assessed as deposition in leaf at 83.3 mg/l; format: ADME
[58] = Toxicity against Aphidius colemani in kidney bean leaf assessed as mortality at 100 mg/l treated as spraying after 24 hr relative to control; format: organism-based; conditions: in vivo
[59] = Toxicity against Aphidius colemani in strawberry leaf assessed as mortality at 5 mg/l treated as spraying after 48 hr relative to control; format: organism-based; conditions: in vivo
[60] = Contact toxicity against Aphidius colemani assessed as mortality at 400 mg/l after 24 hr relative to control; format: organism-based; conditions: in vivo, other: contact
[61] = Contact toxicity against Aphidius colemani assessed as mortality at 400 mg/l after 24 hr; format: organism-based; conditions: in vivo, other: contact
[62] = Toxicity against Aphidius colemani assessed as mortality at 400 mg/l, po after 24 hr relative to control; format: organism-based; conditions: in vivo
[63] = Toxicity against Aphidius colemani assessed as mortality at 400 mg/l, po after 24 hr; format: organism-based; conditions: in vivo
Aphidius colemani [64] = assay: Drug uptake in Aphidius colemani at 400 mg/l treated as spraying; format: ADME, organism-based; conditions: in vivo, topical_or_ocular
Aphidius colemani [65] = assay: Drug uptake in Aphidius colemani at 400 mg/l treated as dipping; format: ADME, organism-based; conditions: in vivo, topical_or_ocular

## CC[C@H]1CCC[C@H](O[C@H]2CC[C@H](N(C)C)[C@@H](C)O2)[C@@H](C)C(=O)C2=C[C@@H]3[C@@H](C=C(C)[C@@H]4C[C@@H](O[C@@H]5O[C@@H](C)[C@H](OC)[C@@H](OC)[C@H]5OC)C[C@@H]34)[C@@H]2CC(=O)O1.CC[C@H]1CCC[C@H](O[C@H]2CC[C@H](N(C)C)[C@@H](C)O2)[C@@H](C)C(=O)C2=C[C@@H]3[C@@H](C=C[C@@H]4C[C@@H](O[C@@H]5O[C@@H](C)[C@H](OC)[C@@H](OC)[C@H]5OC)C[C@@H]34)[C@@H]2CC(=O)O1
Leaf [1]
  Drug uptake: 0.023%
[2]
  mortality at 48 h: 86.7%
[3]
  mortality at 48 h: 8.9%
Leaf [4]
  Drug uptake: 0.93%
[5]
  mortality at 24 h: 62%
[6]
  mortality at 24 h: 96.9%
[7]
  mortality at 24 h: 3.3%
[8]
  mortality at 48 h: 93.6%
[9]
  mortality at 24 h: 90%
[10]
  mortality at 24 h: 100%
[11]
  mortality at 48 h: 21.4%
Leaf [12]
  Drug uptake: 0.003%
Leaf [13]
  Drug uptake: 0.177%
[14]
  mortality at 48 h: 0%
[15]
  mortality at 24 h: 4.3%
[16]
  concentration at 240 h: 28800 ng/g
[17]
  mortality at 24 h: 48.3%
[18]
  mortality at 24 h: 4%
[19]
  mortality at 48 h: 100%
Leaf [20]
  Drug uptake: 2.37%
Leaf [21]
  Drug uptake: 0.025%
[22]
  mortality at 48 h: 98.2%
[23]
  mortality at 24 h: 0%
[24]
  concentration at 720 h: 11400 ng/g
[25]
  mortality at 24 h: 27.7%
[26]
  mortality at 24 h: 100%
[27]
  mortality at 24 h: 4%
[28]
  mortality at 48 h: 100%
Leaf [29]
  Drug uptake: 0.044%
[30]
  mortality at 48 h: 0%
Leaf [31]
  Drug uptake: 0.022%
[32]
  mortality at 48 h: 100%
Leaf [33]
  Drug uptake: 1.145%
[34]
  mortality at 24 h: 3.3%
Aphidius colemani [35]
  Drug uptake: 3.63 ng
[36]
  mortality at 48 h: 97.8%
[37]
  mortality at 48 h: 95.1%
[38]
  mortality at 48 h: 55.9%
[39]
  mortality at 24 h: 93.3%
[40]
  mortality at 24 h: 74.4%
[41]
  mortality at 24 h: 95.8%
[42]
  concentration at 960 h: 9200 ng/g
[43]
  mortality at 24 h: 100%
Leaf [44]
  Drug uptake: 0.004%
[45]
  mortality at 24 h: 0%
[46]
  mortality at 24 h: 0%
[47]
  mortality at 24 h: 3.3%
[48]
  mortality at 48 h: 10%
[49]
  mortality at 48 h: 0%
[50]
  mortality at 48 h: 0%
Leaf [51]
  Drug uptake: 0.219%
[52]
  mortality at 24 h: 91.3%
[53]
  mortality at 48 h: 0%
[54]
  concentration at 120 h: 38800 ng/g
Leaf [55]
  Drug uptake: 0.022%
[56]
  concentration at 480 h: 23000 ng/g
Leaf [57]
  Drug uptake: 2.108%
[58]
  mortality at 24 h: 90%
[59]
  mortality at 48 h: 17.2%

## N#Cc1c(Cl)c(Cl)c(Cl)c(C#N)c1Cl [CHLOROTHALONIL]
[60]
  mortality at 24 h: 8.7%
[61]
  mortality at 24 h: 30%
[62]
  mortality at 24 h: 0%
[63]
  mortality at 24 h: 0%
Aphidius colemani [64]
  Drug uptake: 25.1 ng
Aphidius colemani [65]
  Drug uptake: 5.5 ng
